Reference: patent US20180179386A1, “NANOGEL COMPOUND” (priority 2015, published 2018)

Test system: DOXO resistant cell line KB-V1
Assay: Cytotoxicity of DOXO-loaded nanogel compounds vs free DOXO, MTT assay, resistant cells
Format: cell-based
Conditions: free DOXO up to 10 μM external concentration
Text: In order to use the nanogel compounds for anticancer therapy, the cytotoxicity of the DOXO-loaded nanogel compounds compared with free DOXO was studied in two different cell lines: sensitive-type HeLa cells and DOXO resistant cell line KB-V1. Thereby, squares denote PNIPAM-dPG/AMPS, circles denote PNIPAM-dPG/DMAEM, and triangles denote free DOXO.

Compound: COc1cccc2c1C(=O)c1c(O)c3c(c(O)c1C2=O)C[C@@](O)(C(=O)CO)C[C@@H]3O[C@H]1C[C@H](N)[C@H](O)[C@H](C)O1 [DOXO, doxorubicin]
- cytotoxicity: no effect
